Broadly, the MIC is the lowest concentration that inhibits growth of the organism. Usually IC50 stands for the point on the concentration scale where inhibition reaches its midpoint.

This is an account of results in US11773084B1, “4-arylamino-2-(6-indolylamino)pyrimidine compounds as antibacterial agents” (KING FAISAL UNIVERSITY, priority 2023, dated 2023).

Assay [1] concerns Staphylococcus aureus ATCC 29213. Kind of assay: In vitro antibacterial activity (CLSI M07-A10 dilution MIC). The note with it: ATCC29213. In kind it is cell-based.
The test system of assay [2] is Escherichia coli MTCC 443. The description is as above. The assay is classed as cell-based.
In assay [3] the test system is Klebsiella pneumonia MTCC 618. The description is as above. In kind it is cell-based. The note with it: Klebsiella pneumoniae, MTCC618.
Assay [4] concerns Enterococcus faecium ATCC 51559 (VRE resistant). Described as above. In kind it is cell-based.
Assay [5] has as its target T1, DNA gyrase from E. coli (Escherichia coli, UniProt P0AES4+P0AES6).
T1 construct: purchased Inspiralis
Description: E. coli DNA gyrase inhibition (Inspiralis assay). In kind it is biochemical. On the procedure: First, the plates were rehydrated with buffer (20 mM Tris-HCl with pH 7.6, 0.01% w/v BSA, 0.05% v/v Tween 20, 137 mM NaCl) and the biotinylated oligonucleotide was then immobilized. After washing off the unbound oligonucleotide, the enzyme test was performed. […] Reaction solutions were incubated at 37° C. for 30 min. After that, the TF buffer (50 mM NaOAc with pH 5.0, 50 mM NaCl and 50 mM MgCl2) was added to terminate the enzymatic reaction. After additional incubation for 30 min at rt, during which biotinoligonucleotide-plasmid triplex was formed, the unbound plasmid was washed off using TF buffer and SybrGOLD in T10 buffer (10 mM Tris HCl with pH 8.0 and 1 mM EDTA) was added. The fluorescence was measured with a microplate reader (BioTek Synergy H4, excitation: 485 nm, emission: 535 nm). […] GraphPad Prism software was used to calculate the IC50 values. The result is given as the average value of three independent measurements.

Assay [6] relates to Staphylococcus aureus ATCC BAA-1556 (MERSA resistant). Description: In vitro antibacterial activity (CLSI M07-A10 dilution MIC). In kind it is cell-based. The note with it: ATCCBAA1556.
For assay [7], the system named is Enterococcus faecium ATCC 35667. The description is as above. The assay is classed as cell-based. The note with it: ATCC35667.
The subject of assay [8] is Mycobacterium tuberculosis H37Rv strain. Kind of assay: Anti-tubercular alamar blue microplate MIC assay. In kind it is cell-based. The note with it: seven days 37° C.
The test system of assay [9] is Staphylococcus epidermidis. Kind of assay: In vitro antibacterial activity (CLSI M07-A10 dilution MIC). In kind it is cell-based.
Assay [10] relates to Bacillus subtilis MTCC 441. The assay is described as above. The assay is classed as cell-based. The note with it: MTCC441.
[11] abbreviates: Escherichia coli MTCC 443 + PABN.

In brackets after ≈: the same amount, converted by molar mass. Like-named read-outs stand apart in the source and are kept apart here.

T1 sequence (P0AES4 whole entry, one chain of several): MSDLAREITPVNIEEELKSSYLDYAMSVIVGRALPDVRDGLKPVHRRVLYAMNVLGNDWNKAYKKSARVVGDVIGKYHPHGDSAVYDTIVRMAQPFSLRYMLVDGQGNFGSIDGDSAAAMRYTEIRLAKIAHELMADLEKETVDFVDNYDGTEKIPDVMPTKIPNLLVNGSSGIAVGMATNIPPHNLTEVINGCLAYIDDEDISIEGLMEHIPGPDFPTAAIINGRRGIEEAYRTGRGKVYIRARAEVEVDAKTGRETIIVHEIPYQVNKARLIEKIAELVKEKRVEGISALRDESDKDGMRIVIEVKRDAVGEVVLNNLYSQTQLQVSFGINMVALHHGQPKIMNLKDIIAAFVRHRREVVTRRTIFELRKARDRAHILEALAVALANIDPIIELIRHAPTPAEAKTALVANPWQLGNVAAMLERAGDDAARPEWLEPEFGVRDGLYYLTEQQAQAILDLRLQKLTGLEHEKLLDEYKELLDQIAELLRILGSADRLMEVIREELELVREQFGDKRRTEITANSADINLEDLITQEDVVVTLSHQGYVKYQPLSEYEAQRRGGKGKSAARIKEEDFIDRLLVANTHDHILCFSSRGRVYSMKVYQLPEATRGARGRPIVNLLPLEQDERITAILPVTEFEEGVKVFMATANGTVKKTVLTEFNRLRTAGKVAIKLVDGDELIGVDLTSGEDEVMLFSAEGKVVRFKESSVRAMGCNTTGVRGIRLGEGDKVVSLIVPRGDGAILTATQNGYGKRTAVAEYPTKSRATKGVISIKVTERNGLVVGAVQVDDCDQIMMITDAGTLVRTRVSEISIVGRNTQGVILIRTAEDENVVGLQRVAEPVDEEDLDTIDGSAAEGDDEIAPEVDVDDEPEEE

Take `CCCCCN(C)Cc1cc(C(=O)O)ccc1Nc1ccnc(Nc2ccc3cc(C)[nH]c3c2)n1` [Example 8, 3-((methyl(pentyl)amino)methyl)-4-((2-((2-methyl-1H-indol-6-yl)amino)pyrimidin-4-yl)amino)benzoic acid]: the MIC in [1] (Staphylococcus aureus ATCC 29213, read-out: MIC) was determined as 4 µg/mL (≈ 8.46 µM); in assay [2] (setting [11]), 2 µg/mL; in [2] (MTCC443, Escherichia coli MTCC 443, read-out: MIC), 32 µg/mL (≈ 67.7 µM); in assay [3] (Klebsiella pneumonia MTCC 618, read-out: MIC), 2 µg/mL (≈ 4.23 µM); in assay [4] (Enterococcus faecium ATCC 51559 (VRE resistant), read-out: MIC), 4 µg/mL (≈ 8.46 µM); in [6] (Staphylococcus aureus ATCC BAA-1556 (MERSA resistant), read-out: MIC) it was 4 µg/mL (≈ 8.46 µM). Besides, the minimum inhibitory concentration (MIC) was found to be 2 µg/mL (≈ 4.23 µM) in assay [7] (Enterococcus faecium ATCC 35667, read-out: MIC); 8 µg/mL (≈ 16.9 µM) in assay [9] (read-out: MIC); 2 µg/mL (≈ 4.23 µM) in assay [10] (Bacillus subtilis MTCC 441, read-out: MIC). In addition, in assay [5], the IC50 was 315 nM. The “anti-mycobacterial activity (MIC)” value in assay [8] is listed as 8 micro-g/mL.

On to `CN[C@H](CC(C)C)C(=O)N[C@H]1C(=O)N[C@@H](CC(N)=O)C(=O)N[C@H]2C(=O)N[C@H]3C(=O)N[C@H](C(=O)N[C@H](C(=O)O)c4cc(O)cc(O)c4-c4cc3ccc4O)[C@H](O)c3ccc(c(Cl)c3)Oc3cc2cc(c3O[C@@H]2O[C@H](CO)[C@@H](O)[C@H](O)[C@H]2O[C@H]2C[C@](C)(N)[C@H](O)[C@H](C)O2)Oc2ccc(cc2Cl)[C@H]1O` [Vancomycin, reference compound], for which the MIC in assay [1] (Staphylococcus aureus) is 1 µg/mL (≈ 0.69 µM); in [2] (setting [11]), >128 µg/mL; in assay [2] (Escherichia coli, MTCC443), > 128 µg/mL; in [3], > 128 µg/mL; in assay [4] (Enterococcus faecium), > 128 µg/mL; in assay [6] (Staphylococcus aureus) it was 1 µg/mL (≈ 0.69 µM). Also, the MIC in [7] (Enterococcus faecium) turned out to be 0.5 µg/mL (≈ 0.345 µM); in assay [9], 1 µg/mL (≈ 0.69 µM); in assay [10] (Bacillus subtilis), 0.5 µg/mL (≈ 0.345 µM).
